# ChEMBL document CHEMBL3856207, “Kinetic, thermodynamic and structural analysis of tamiphosphor binding to neuraminidase of H1N1 (2009) pandemic influenza” (Eur J Med Chem, 2016)
# Calls of active or inactive are those of the source. No cut-off for these calls is given here.
# Test system: not listed separately
# Assay: Inhibition of Influenza A virus (A/California/07/2009(H1N1)) recombinant wild type N-terminal FLAG-tagged neuraminidase ectodomain (82 to 469 residues) transfected in Drosophila Schneider S2 cells using 4-MUNANA as substrate after 20 mins by fluorometric method
row,SMILES,Ki [µM]
1,CCC(CC)O[C@@H]1C=C(P(=O)(O)O)C[C@H](NC(=N)N)[C@H]1NC(C)=O,0.14
2,CCC(CC)O[C@@H]1C=C(P(=O)(O)OC)C[C@H](N)[C@H]1NC(C)=O,0.039
3,CCC(CC)O[C@@H]1C=C(C(=O)O)C[C@H](NC(=N)N)[C@H]1NC(C)=O,0.046
4,CCC(CC)O[C@@H]1C=C(P(=O)(O)O)C[C@H](N)[C@H]1NC(C)=O [TAMIPHOSPHOR],0.026

# Test system: S2
# Assay: Binding affinity to Influenza A virus (A/California/07/2009(H1N1)) recombinant wild type N-terminal FLAG-tagged neuraminidase catalytic domain transfected in Drosophila Schneider S2 cells at 76 to 93 uM by isothermal titration calorimetric method
row,SMILES,Activity
1,CCC(CC)O[C@@H]1C=C(C(=O)O)C[C@H](N)[C@H]1NC(C)=O [OSELTAMIVIR CARBOXYLATE],Active
2,CCC(CC)O[C@@H]1C=C(P(=O)(O)O)C[C@H](N)[C@H]1NC(C)=O [TAMIPHOSPHOR],Active
